The record followed here is the supplement of paper PMC10307832.

Common to all, as to experiment: relative viability (nuclei count vs DMSO), 5 days (fraction); higher = more cells survive
Compound in experiment [1]: C[As](C)SC[C@H](NC(=O)CC[C@H](N)C(=O)O)C(=O)NCC(=O)O [Darinaparsin] + Nc1nc2[nH]cc(CCc3ccc(C(=O)N[C@@H](CCC(=O)O)C(=O)O)cc3)c2c(=O)[nH]1 [Pemetrexed] (partner 0.2 µM)
In short, it runs like this: (§1)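 Dosing by pin tool came one day after lung cancer cell lines were seeded in 1536-well plates, using either one drug or a fixed anchor-drug dose plus five library-drug doses (not always all listed) in √10 steps. After 5 days, nuclei were counted on 4× images. Relative viability is treated-well nuclei count divided by vehicle-well nuclei count, and values are medians of duplicate plates.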

Compound in the experiment “Darinaparsin + Foretinib”: C[As](C)SC[C@H](NC(=O)CC[C@H](N)C(=O)O)C(=O)NCC(=O)O [Darinaparsin] + COc1cc2c(Oc3ccc(NC(=O)C4(C(=O)Nc5ccc(F)cc5)CC4)cc3F)ccnc2cc1OCCCN1CCOCC1 [Foretinib] (partner 0.25 µM)
In short, it runs like this:
as §1

Compound in the experiment “Darinaparsin + Dasatinib”: C[As](C)SC[C@H](NC(=O)CC[C@H](N)C(=O)O)C(=O)NCC(=O)O [Darinaparsin] + Cc1nc(Nc2ncc(C(=O)Nc3c(C)cccc3Cl)s2)cc(N2CCN(CCO)CC2)n1 [Dasatinib] (partner 0.075 µM)
In short, it runs like this:
as §1

Compound in experiment [2]: C[As](C)SC[C@H](NC(=O)CC[C@H](N)C(=O)O)C(=O)NCC(=O)O [Darinaparsin] + CC1(C)CCC(c2ccc(Cl)cc2)=C(CN2CCN(c3ccc(C(=O)NS(=O)(=O)c4ccc(N[C@H](CCN5CCOCC5)CSc5ccccc5)c(S(=O)(=O)C(F)(F)F)c4)cc3)CC2)C1 [Navitoclax] (partner 0.5 µM)
In short, it runs like this: as §1

For NCI-H661, the relative viability in experiment [1] (first compound 0.08 µM) was 0.915; in experiment [1] (first compound 0.8 µM), 0.922; in experiment [1] (first compound 2.53 µM), 0.921; in experiment [1] (first compound 8 µM) it was 1.02; with Darinaparsin + Foretinib (first compound 0.08 µM), 1.01; with Darinaparsin + Foretinib (first compound 0.8 µM), 0.995. In addition, the relative viability with Darinaparsin + Foretinib (first compound 2.53 µM) is 1.08; with Darinaparsin + Foretinib (first compound 8 µM), 1.26; with Darinaparsin + Dasatinib (first compound 0.08 µM), 0.981; with Darinaparsin + Dasatinib (first compound 0.8 µM), 0.772; in the experiment with Darinaparsin + Dasatinib (first compound 2.53 µM) it was 0.89; with Darinaparsin + Dasatinib (first compound 8 µM), 0.948.

For NCI-H1734, the relative viability was 0.421 in experiment [1] (first compound 0.08 µM); 0.389 in experiment [1] (first compound 0.8 µM); 0.442 in experiment [1] (first compound 2.53 µM); 0.466 in experiment [1] (first compound 8 µM); 1.04 in the experiment with Darinaparsin + Foretinib (first compound 0.08 µM); 0.801 in the experiment with Darinaparsin + Foretinib (first compound 0.8 µM). Moreover, the relative viability with Darinaparsin + Foretinib (first compound 2.53 µM) was 0.815; with Darinaparsin + Foretinib (first compound 8 µM) it was 0.99; with Darinaparsin + Dasatinib (first compound 0.08 µM), 0.461; with Darinaparsin + Dasatinib (first compound 0.8 µM), 0.441; with Darinaparsin + Dasatinib (first compound 2.53 µM), 0.44; in the experiment with Darinaparsin + Dasatinib (first compound 8 µM) it was 0.49. The relative viability worked out at 1.07 in experiment [2] (first compound 0.08 µM), 0.947 in experiment [2] (first compound 0.8 µM), 0.806 in experiment [2] (first compound 2.53 µM) and 1.11 in experiment [2] (first compound 8 µM).

Turning to HCC-827, the relative viability came to 0.256 in experiment [1] (first compound 0.08 µM); 0.268 in experiment [1] (first compound 0.8 µM); 0.254 in experiment [1] (first compound 2.53 µM); 0.263 in experiment [1] (first compound 8 µM); 1.16 in the experiment with Darinaparsin + Foretinib (first compound 0.08 µM); 1.09 with Darinaparsin + Foretinib (first compound 0.8 µM). The relative viability in the experiment with Darinaparsin + Foretinib (first compound 2.53 µM) turned out to be 1.02; in the experiment with Darinaparsin + Foretinib (first compound 8 µM), 1.06; in the experiment with Darinaparsin + Dasatinib (first compound 0.08 µM), 0.268; with Darinaparsin + Dasatinib (first compound 0.8 µM), 0.397; in the experiment with Darinaparsin + Dasatinib (first compound 2.53 µM), 0.243; with Darinaparsin + Dasatinib (first compound 8 µM), 0.309. Moreover, the relative viability amounted to 1.07 in experiment [2] (first compound 0.08 µM), 1.07 in experiment [2] (first compound 0.8 µM), 1.05 in experiment [2] (first compound 2.53 µM) and 1.05 in experiment [2] (first compound 8 µM).

For the cell line 201T, the relative viability turned out to be 0.374 in experiment [1] (first compound 0.08 µM); 0.33 in experiment [1] (first compound 0.8 µM); 0.33 in experiment [1] (first compound 2.53 µM); 0.363 in experiment [1] (first compound 8 µM); 1.2 with Darinaparsin + Foretinib (first compound 0.08 µM); 1.15 with Darinaparsin + Foretinib (first compound 0.8 µM). Besides, the relative viability is 1.19 with Darinaparsin + Foretinib (first compound 2.53 µM); 1.03 with Darinaparsin + Foretinib (first compound 8 µM); 0.571 in the experiment with Darinaparsin + Dasatinib (first compound 0.08 µM); 0.533 with Darinaparsin + Dasatinib (first compound 0.8 µM); 0.66 with Darinaparsin + Dasatinib (first compound 2.53 µM); 0.627 in the experiment with Darinaparsin + Dasatinib (first compound 8 µM). In addition, the relative viability came out at 1.21 in experiment [2] (first compound 0.08 µM), 1.15 in experiment [2] (first compound 0.8 µM), 1.19 in experiment [2] (first compound 2.53 µM) and 1.12 in experiment [2] (first compound 8 µM).

Consider HCC-44, for which the relative viability in experiment [1] (first compound 0.08 µM) came out at 0.7; in experiment [1] (first compound 0.8 µM), 0.607; in experiment [1] (first compound 2.53 µM), 0.669; in experiment [1] (first compound 8 µM), 0.721; in experiment [2] (first compound 0.08 µM), 1.18; in experiment [2] (first compound 0.8 µM), 1. In addition, the figures for the relative viability in experiment [2] (first compound 2.53 µM) and in experiment [2] (first compound 8 µM) were 0.864 and 1.19, respectively.

For the cell line NCI-H650, the relative viability was 0.947 in experiment [1] (first compound 0.08 µM); 0.835 in experiment [1] (first compound 0.8 µM); 0.959 in experiment [1] (first compound 2.53 µM); 1.02 in experiment [1] (first compound 8 µM); 1.09 with Darinaparsin + Foretinib (first compound 0.08 µM); 1.05 with Darinaparsin + Foretinib (first compound 0.8 µM). Moreover, the relative viability in the experiment with Darinaparsin + Foretinib (first compound 2.53 µM) was 1.13; with Darinaparsin + Foretinib (first compound 8 µM), 1.03; in the experiment with Darinaparsin + Dasatinib (first compound 0.08 µM), 0.529; with Darinaparsin + Dasatinib (first compound 0.8 µM) it was 0.515; in the experiment with Darinaparsin + Dasatinib (first compound 2.53 µM), 0.42; with Darinaparsin + Dasatinib (first compound 8 µM), 0.486.

In the case of PC-3 [JPC-3], the relative viability was found to be 1.43 in experiment [1] (first compound 0.08 µM); 1.02 in experiment [1] (first compound 0.8 µM); 1.04 in experiment [1] (first compound 2.53 µM); 1.04 in experiment [1] (first compound 8 µM); 1.13 with Darinaparsin + Foretinib (first compound 0.08 µM); 1.03 in the experiment with Darinaparsin + Foretinib (first compound 0.8 µM). Further, the relative viability turned out to be 1.1 with Darinaparsin + Foretinib (first compound 2.53 µM); 1.13 with Darinaparsin + Foretinib (first compound 8 µM); 1.11 with Darinaparsin + Dasatinib (first compound 0.08 µM); 1 with Darinaparsin + Dasatinib (first compound 0.8 µM); 0.826 with Darinaparsin + Dasatinib (first compound 2.53 µM); 1.01 with Darinaparsin + Dasatinib (first compound 8 µM). In addition, the relative viability in experiment [2] (first compound 0.08 µM) worked out at 0.832; in experiment [2] (first compound 0.8 µM), 0.748; in experiment [2] (first compound 2.53 µM) it was 0.767; in experiment [2] (first compound 8 µM) it was 0.825.

Take NCI-H1395: the relative viability was 0.944 in experiment [1] (first compound 0.08 µM); 0.719 in experiment [1] (first compound 0.8 µM); 0.795 in experiment [1] (first compound 2.53 µM); 0.792 in experiment [1] (first compound 8 µM); 1.13 in the experiment with Darinaparsin + Foretinib (first compound 0.08 µM); 0.958 with Darinaparsin + Foretinib (first compound 0.8 µM). In addition, the relative viability is 0.944 with Darinaparsin + Foretinib (first compound 2.53 µM); 0.952 with Darinaparsin + Foretinib (first compound 8 µM); 0.438 in the experiment with Darinaparsin + Dasatinib (first compound 0.08 µM); 0.377 in the experiment with Darinaparsin + Dasatinib (first compound 0.8 µM); 0.427 in the experiment with Darinaparsin + Dasatinib (first compound 2.53 µM); 0.405 with Darinaparsin + Dasatinib (first compound 8 µM). The relative viability is 1.15 in experiment [2] (first compound 0.08 µM), 1.06 in experiment [2] (first compound 0.8 µM), 1.03 in experiment [2] (first compound 2.53 µM) and 0.902 in experiment [2] (first compound 8 µM).

As to CAL-12T, the relative viability in experiment [1] (first compound 0.08 µM) amounted to 1.65; in experiment [1] (first compound 0.8 µM), 1.08; in experiment [1] (first compound 2.53 µM) it was 1.17; in experiment [1] (first compound 8 µM), 1.38; in the experiment with Darinaparsin + Foretinib (first compound 0.08 µM), 1.23; in the experiment with Darinaparsin + Foretinib (first compound 0.8 µM), 0.983. Further, the relative viability with Darinaparsin + Foretinib (first compound 2.53 µM) is 1.12; in the experiment with Darinaparsin + Foretinib (first compound 8 µM), 1.14; in the experiment with Darinaparsin + Dasatinib (first compound 0.08 µM), 0.337; with Darinaparsin + Dasatinib (first compound 0.8 µM) it was 0.381; with Darinaparsin + Dasatinib (first compound 2.53 µM) it was 0.234; with Darinaparsin + Dasatinib (first compound 8 µM), 0.315. Also, the relative viability came to 1.48 in experiment [2] (first compound 0.08 µM), 1.11 in experiment [2] (first compound 0.8 µM), 1.27 in experiment [2] (first compound 2.53 µM) and 1.37 in experiment [2] (first compound 8 µM).

Take NCI-H1944: the relative viability in experiment [1] (first compound 0.08 µM) came to 0.663; in experiment [1] (first compound 0.8 µM), 0.687; in experiment [1] (first compound 2.53 µM), 0.649; in experiment [1] (first compound 8 µM), 0.57; with Darinaparsin + Foretinib (first compound 0.08 µM) it was 0.917; with Darinaparsin + Foretinib (first compound 0.8 µM) it was 0.898. The relative viability with Darinaparsin + Foretinib (first compound 2.53 µM) came to 0.731; in the experiment with Darinaparsin + Foretinib (first compound 8 µM) it was 0.995; in the experiment with Darinaparsin + Dasatinib (first compound 0.08 µM) it was 0.203; with Darinaparsin + Dasatinib (first compound 0.8 µM), 0.2; in the experiment with Darinaparsin + Dasatinib (first compound 2.53 µM), 0.208; with Darinaparsin + Dasatinib (first compound 8 µM), 0.192. The relative viability was determined as 1.06 in experiment [2] (first compound 0.08 µM), 1.07 in experiment [2] (first compound 0.8 µM), 1.04 in experiment [2] (first compound 2.53 µM) and 1.06 in experiment [2] (first compound 8 µM).
